According to patent publication US7632833B2, “Mitotic kinesin inhibitors” (Merck & Co., Inc., priority 2004, dated 2009):

target: T1, human poly-histidine tagged KSP motor domain (KSP(367H)) (Homo sapiens, UniProt P52732); test: Kinesin ATPase In Vitro Assay; format: biochemical; details: not given
T1 construct: were used to amplify the motor domain and the neck linker region; made in house; host or cells: E. coli BL21 (DE3), vector pRSETa
T1 sequence (P52732 18-359 limits assumed): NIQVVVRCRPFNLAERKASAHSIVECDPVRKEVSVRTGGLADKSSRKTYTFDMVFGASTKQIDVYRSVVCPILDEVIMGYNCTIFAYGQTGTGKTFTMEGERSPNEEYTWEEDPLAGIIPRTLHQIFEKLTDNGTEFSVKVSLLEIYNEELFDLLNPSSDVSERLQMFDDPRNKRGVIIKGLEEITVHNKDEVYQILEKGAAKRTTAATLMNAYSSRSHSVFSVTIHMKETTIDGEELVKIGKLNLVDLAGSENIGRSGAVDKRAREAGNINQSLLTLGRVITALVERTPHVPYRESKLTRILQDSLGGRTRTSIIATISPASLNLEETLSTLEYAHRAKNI
Protocol: I. Kinesin ATPase In Vitro Assay
The N-terminal primer 5′-[…] (SEQ. ID. NO.: 1) and the C-terminal primer 5′-[…] […] (SEQ. ID. NO.: 2)
were used to amplify the motor domain and the neck linker region. The PCR products were digested with AseI and XhoI, ligated into the NdeI/XhoI digestion product of pRSETa (Invitrogen) and transformed into E. coli BL21 (DE3).
Cells were grown at 37° C. to an OD600 of 0.5. After cooling the culture to room temperature expression of KSP was induced with 100 μM IPTG and incubation was continued overnight. Cells were pelleted by centrifugation and washed once with ice-cold PBS. Pellets were flash-frozen and stored −80° C.
Protein Purification: Cell pellets were thawed on ice and resuspended in lysis buffer (50 mM K-HEPES, pH 8.0, 250 mM KCl, 0.1% Tween, 10 mM imidazole, 0.5 mM Mg-ATP, 1 mM PMSF, 2 mM benzimidine, 1× complete protease inhibitor cocktail (Roche)). Cell suspensions were incubated with 1 mg/ml lysozyme and 5 mM β-mercaptoethanol on ice for 10 minutes, followed by sonication (3×30 sec). All subsequent procedures were performed at 4° C. Lysates were centrifuged at 40,000×g for 40 minutes. Supernatants were diluted and loaded onto an SP Sepharose column (Pharmacia, 5 ml cartridge) in buffer A (50 mM K-HEPES, pH 6.8, 1 mM MgCl2, 1 mM EGTA, 10 μM Mg-ATP, 1 mM DTT) and eluted with a 0 to 750 mM KCl gradient in buffer A. Fractions containing KSP were pooled and incubated with Ni-NTA resin (Qiagen) for one hour. The resin was washed three times with buffer B (Lysis buffer minus PMSF and protease inhibitor cocktail), followed by three 15-minute incubations and washes with buffer B. Finally, the resin was incubated and washed for 15 minutes three times with buffer C (same as buffer B except for pH 6.0) and poured into a column. KSP was eluted with elution buffer (identical to buffer B except for 150 mM KCl and 250 mM imidazole). KSP-containing fractions were pooled, made 10% in sucrose, and stored at −80° C.
Microtubules are prepared from tubulin isolated from bovine brain. Purified tubulin (>97% MAP-free) at 1 mg/ml is polymerized at 37° C. in the presence of 10 μM paclitaxel, 1 mM DTT, 1 mM GTP in BRB80 buffer (80 mM K-PIPES, 1 mM EGTA, 1 mM MgCl2 at pH 6.8). The resulting microtubules are separated from non-polymerized tubulin by ultracentrifugation and removal of the supernatant. The pellet, containing the microtubules, is gently resuspended in 10 μM paclitaxel, 1 mM DTT, 50 μg/ml ampicillin, and 5 μg/ml chloramphenicol in BRB80.
The kinesin motor domain is incubated with microtubules, 1 mM ATP (1:1 MgCl2: Na-ATP), and compound at 23° C. in buffer containing 80 mM K-HEPES (pH 7.0), […], 1 mM DTT, 1 mM MgCl2, and 50 mM KCl. The reaction is terminated by a 2-10 fold dilution with a final buffer composition of 80 mM HEPES and 50 mM EDTA. […] The reaction is incubated for 10 minutes at 23° C., and the absorbance of the phospho-molybdate complex is measured at 540 nm.

IC50 [µM]	SMILES
≤ 30	CC(=O)C1=NN2c3cc(F)ccc3OC[C@H]2[C@@]1(CCCN1CCC(=O)N(C)CC1)c1ccccc1 [Compound 4-38, 1-{3-[(3R,4R)-2-acetyl-8-fluoro-3-phenyl-3a,4-dihydro-3H-pyrazolo[5,1-c][1,4]benzoxazin-3-yl]propyl}-4-methyl-1,4-diazepan-5-one]
≤ 30	CC(=O)C1=NN2c3cc(F)ccc3OC[C@H]2[C@@]1(CCCN1CCN(C(C)=O)CC1)c1ccccc1 [Compound 5-10, 1-{(3R,4R)-3-[3-(4-acetylpiperazin-1-yl)propyl]-8-fluoro-3-phenyl-3a,4-dihydro-3H-pyrazolo[5,1-c][1,4]benzoxazin-2-yl}ethanone]

same assay, conditions: (3R,4R) enantiomeric form tested; kinesin motor domain with microtubules, 1 mM ATP, 23° C., free phosphate by quinaldine red/ammonium molybdate; read-out: IC50

SMILES	IC50 [µM]
CC(=O)C1=NN2c3cc(F)ccc3OC[C@H]2[C@@]1(CCCN1CCN(C)C(=O)C1)c1ccccc1 [Compound 4-37, 4-{3-[(3R,4R)-2-acetyl-8-fluoro-3-phenyl-3a,4-dihydro-3H-pyrazolo[5,1-c][1,4]benzoxazin-3-yl]propyl}-1-methylpiperazin-2-one]	≤ 30
CC(=O)NCCNCCC[C@]1(c2ccccc2)C(C(C)=O)=NN2c3cc(F)ccc3OC[C@H]21 [Compound 4-40, N-[2-({3-[(3R,4R)-2-acetyl-8-fluoro-3-phenyl-3a,4-dihydro-3H-pyrazolo[5,1-c][1,4]benzoxazin-3-yl]propyl}amino)ethyl]acetamide]	≤ 30

Next, values leading:

IC50 [µM]	SMILES
≤ 30	CC(=O)C1=NN2c3cc(F)ccc3OC[C@H]2[C@@]1(CCCN1CCN(C(=O)c2ccno2)CC1)c1ccccc1 [Compound 4-34, 1-((3R,4R)-8-fluoro-3-{3-[4-(isoxazol-5-ylcarbonyl)piperazin-1-yl]propyl}-3-phenyl-3a,4-dihydro-3H-pyrazolo[5,1-c][1,4]benzoxazin-2-yl)ethanone]
≤ 30	CC(=O)C1=NN2c3cc(F)ccc3OC[C@H]2[C@@]1(CCCN1CCN(C(=O)c2cc(C)on2)CC1)c1ccccc1 [Compound 4-35, 1-[(3R,4R)-8-fluoro-3-(3-{4-[(5-methylisoxazol-3-yl)carbonyl]piperazin-1-yl}propyl)-3-phenyl-3a,4-dihydro-3H-pyrazolo[5,1-c][1,4]benzoxazin-2-yl]ethanone]
≤ 30	CC(=O)C1=NN2c3cc(F)ccc3OC[C@H]2[C@@]1(CCCN1CCNC(=O)C1)c1ccccc1 [Compound 4-36, 4-{3-[(3R,4R)-2-acetyl-8-fluoro-3-phenyl-3a,4-dihydro-3H-pyrazolo[5,1-c][1,4]benzoxazin-3-yl]propyl}piperazin-2-one]
